From patent US20180344758A1, “Method of Treating Cancer with cGAMP or cGAsMP” (LIPOGEN LLC, priority 2014, published 2018)

How the values were obtained:
IFN-β reporter = IFN-β reporter assay in THP1 blue cells; conditions: for inducing the expression of IFN-β reporter: THP1 blue cells, cyclic dinucleotides added to the culture media (FIG. 3A)
Description: (§1) To confirm that cGAMP can induce the expression of IFN-β, we stimulated human monocytes THP1 blue cells with cGAMP and other three cyclic dinucleotides added to the culture media.

IFN-β [1] = assay: IFN-β ELISA of THP1 culture supernatant; conditions: for IFN-β levels in the culture supernatant by ELISA, response: THP1 cells (FIG. 3B); for IFN-β production: THP1 cells (FIGS. 13A-B)
Description: as §1

NF-κB = NF-κB reporter assays
[2] = system: neuronal cancer cell line SF539; assay: MTT assay, SF539
Protocol: (§2) MTT solution: 5 mg/mL Thiazolyl Blue Tetrazolium Bromide (MTT) in PBS. The solution was filter sterilized after adding MTT and stored at −20° C.; MTT solvent: 4 mM HCl, 0.1% Nondet P-40 (NP40) in isopropanol. cGAMP or cGAsMP solutions: 10-30 mg/ml in PBS, filter sterilized using a 0.2 μm filter. • B. MTT Assay for Attaching Cancer Cell Lines SF539, U251, A498, and ACHN
On day one, one T-25 flask was trypsinized and 5 ml of complete media was added to the cells. The cells and media were centrifuged in a sterile 15 ml falcon tube at 300×g rcf in the swinging bucket rotor for 5 min. […] Cells were counted and recorded per ml. Cells were diluted (cv=cv) to 75,000 cells per ml with complete RPMI media. 100 μl of cells (7500 total cells) were added into each well of a 96 well plate and incubated overnight. 24 hours later, 100 μl of medium or cGAMP or cGAsMP solutions were added to each well. On the fifth day, 20 μl of 5 mg/ml MTT were added to each well. One set of wells with MTT but no cells served as a control. All steps were done aseptically. The wells were incubated for 3.5 hours at 37° C. in a CO2 incubator. Media was carefully removed, taking care not to disturb the cells. No PBS rinse was performed. 150 μl MTT solvent was added. The plate was covered with foil and cells agitated on orbital shaker for 15 min. The absorbance was measured at 590 nm using a plate reader. Each assay was repeated five times. • C.

IFN-β [3] = conditions: intravenous (i.v.) injection, 100 μg/mice, sera ELISA (FIG. 3C)
Description: FIG. 3C is an IFN-β ELISA of sera from mice injected with cGAMP.

[4] = system: CNS cancer cell line SF539; assay: NCI60 antitumor screen, SF539; conditions: single dose of 10 μM
[5] = system: leukemia cell line CCRF-CEM; assay: MTT assay, CCRF-CEM; assay type: cell-based, human; conditions: control leukemia cell line (FIG. 8)
[6] = system: IFN-β in renal cancer cell line A498; assay: IFN-β induction in A498; conditions: FIG. 7A
leukemia cell line SR [7] = assay: MTT assay, SR; assay type: cell-based, human
[8] = system: renal cancer cell line A498; assay: MTT assay, A498; conditions: FIG. 6B
Protocol: as §2
On day one, one T-25 flask was trypsinized and 5 ml of complete media was added to the cells. The cells and media were centrifuged in a sterile 15 ml falcon tube at 300×g rcf in the swinging bucket rotor for 5 min. […] Cells were counted and recorded per ml. Cells were diluted (cv=cv) to 75,000 cells per ml with complete RPMI media. 100 μl of cells (7500 total cells) were added into each well of a 96 well plate and incubated overnight. 24 hours later, 100 μl of medium or cGAMP or cGAsMP solutions were added to each well. On the fifth day, 20 μl of 5 mg/ml MTT were added to each well. One set of wells with MTT but no cells served as a control. All steps were done aseptically. The wells were incubated for 3.5 hours at 37° C. in a CO2 incubator. Media was carefully removed, taking care not to disturb the cells. No PBS rinse was performed. 150 μl MTT solvent was added. The plate was covered with foil and cells agitated on orbital shaker for 15 min. The absorbance was measured at 590 nm using a plate reader. […]

[9] = system: IFN-β in control cell lines; assay: IFN-β induction in control cell lines; conditions: two control cell lines tested (FIG. 7)
[10] = system: renal cancer cell line A498; assay: NCI60 antitumor screen, A498; conditions: single dose of 10 μM
[11] = system: MMTV-BALB-neuT mouse mammary tumors; assay: MMTV-BALB-neuT spontaneous breast cancer model; conditions: 0.1 mg per mouse intra-tumor once a day for three days; day 4 post-treatment; p value of 0.0009 (FIG. 15D)
Protocol: Comparisons were made between vehicle (veh.) and cGAMP treatment. The tumor growth was monitored for 4 days and growth rate was examined using serial caliper measurements. The tumor volume was calculated using the equation (a×b^2)/2 where “a” and “b” are length and width of the tumor, respectively. At the completion of the experiments, tumors were excised and statistical significance of differences in tumor volume was analyzed.

[12] = system: genome-wide gene expression; assay: Microarray analysis of gene expression in THP1 cells; conditions: 20 μg/ml, 4 hours and 8 hours post treatment (FIG. 5)
cytokines and chemokines = assay: Multiplex cytokine assays in THP1 cells
leukemia cell line SR [13] = assay: NCI60 antitumor screen, SR; conditions: single dose of 10 μM
[14] = system: IFN-β in CNS cancer cell line SF539; assay: IFN-β induction in SF539; conditions: FIG. 7B

## Nc1nc2c(ncn2[C@@H]2O[C@@H]3COP(=O)(O)O[C@H]4[C@@H](O)[C@H](n5cnc6c(N)ncnc65)O[C@@H]4COP(=O)(O)O[C@H]3[C@H]2O)c(=O)[nH]1 [3′,5′ cGAMP, reference compound]
IFN-β reporter
  inducing the expression of IFN-β reporter: lower activity
IFN-β [1]
  IFN-β levels in the culture supernatant by ELISA, response: much weaker

## Nc1nc2c(ncn2[C@@H]2O[C@@H]3COP(=O)(O)O[C@H]4[C@@H](O)[C@H](n5cnc6c(N)ncnc65)O[C@@H]4COP(=O)(O)O[C@@H]2[C@@H]3O)c(=O)[nH]1 [cGAMP, 2′,5′ cGAMP]
NF-κB
  activation of NF-κB: stimulate the activation of NF-κB
[2]; FIG. 6A
  growth suppression, MTT: suppresses the growth
[2]; FIG. 14A
  antitumor activity, MTT: have antitumor activity
IFN-β [3]
  induction of IFN-β in mice: rapid responses
[4]
  growth inhibition: effectively inhibited the growth
[5]
  response of cell line to treatment, MTT: did not respond
[6]
  induction of IFN-β: induces IFN-β
IFN-β reporter
  inducing the expression of IFN-β reporter: very potent
Leukemia cell line SR [7]; FIG. 8A (cGAMP), FIG. 8B (IFN-β)
  response of cell line to treatment, MTT: responds strongly
Leukemia cell line SR [7]; FIG. 14B
  antitumor activity, MTT: have antitumor activity
[8]
  growth suppression, MTT: suppresses the growth
[9]
  induction of IFN-β: quite low
[10]
  growth inhibition: effectively inhibited the growth
IFN-β [1]
  IFN-β levels in the culture supernatant by ELISA, response: rapid responses
  IFN-β production: can induce
IFN-β [1]; THP1 cells, ELISA (FIG. 3B)
  time at which induction of IFN-β peaked: 8-10 hours post stimulation
[11]
  tumor growth and tumor size: effective for both reducing tumor growth and reducing tumor size
[12]
  number of genes up-regulated: over 200 genes
Cytokines and chemokines; THP1 cell
  expression of IL-1β: does not up-regulate
Cytokines and chemokines; THP1 cell (FIG. 4)
  expression of IL-8, TNF-α, GROα, IP-10, MCP-1, MCP-2, and RANTES: up-regulation
Leukemia cell line SR [13]
  growth inhibition: effectively inhibited the growth
[14]
  induction of IFN-β: induces IFN-β

## Nc1nc2c(ncn2C2OC3COP(=O)(O)OC4C(COP(O)(=S)OC2C3O)OC(n2cnc3c(N)ncnc32)C4O)c(=O)[nH]1 (stereo not shown) [cGAsMP, 2′5′-cGAsMP]
[2]; FIG. 14A
  antitumor activity, MTT: have antitumor activity
  impact on cell viability compared with cGAMP: generally a bigger impact on cell viability at lower concentrations
IFN-β reporter; THP1 cells, 0.2 to 25 μg/ml (FIG. 13B)
  potency in inducing IFN-β reporter gene expression, compared: more potent than cGAMP
Leukemia cell line SR [7]; FIG. 14B
  antitumor activity, MTT: have antitumor activity
  impact on cell viability compared with cGAMP: generally a bigger impact on cell viability at lower concentrations
IFN-β [1]
  IFN-β production: can induce
IFN-β [1]; THP1 cells, 5 and 25 μg/ml, ELISA (FIG. 13A)
  IFN-β levels relative to cGAMP: 5-10 times
